Our source for the TGI and GI50 values is PubChem BioAssay (NCI).

Some test systems named below: K-562 leukemia; M14 melanoma; OVCAR-3 ovarian; SF-268 CNS; CAKI-1 renal; PC-3 prostate; CCRF-CEM leukemia; T-47D breast; HS 578T breast; COLO 205 colon; A549 NSCLC; HL-60(TB) leukemia; MDA-N.
What all share (assay): NCI anticancer screen, dose series, 48 h

SMILES strings stand for the structures.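 All cell lines were grown in 96-well plates and treated with compound for 48 hours. At the GI50, growth is halved. TGI denotes the concentration required for complete inhibition of growth.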 Bounds are passed on as bounds.

As for `O=C(O)C1=CN(c2ccncc2)C(c2ccco2)=CC1c1ccccc1[N+](=O)[O-]` (stereo not drawn), the TGI with K-562 leukemia is greater than 100 µM; with M14 melanoma it was 23.4 µM; in the test with OVCAR-3 ovarian it was 21.2 µM; in the test on SF-268 CNS it was 25.9 µM; in the test with CAKI-1 renal it was 34.1 µM; in the test with PC-3 prostate it was 28 µM. Moreover, the TGI in the test with CCRF-CEM leukemia is greater than 100 µM; in the test on T-47D breast, 25 µM; in the test with HS 578T breast, 62.4 µM; with COLO 205 colon, 32.9 µM; with A549 NSCLC it was 34.2 µM; with HL-60(TB) leukemia, greater than 100 µM.
On to `O=c1oc2ccc3ccccc3c2cc1-c1cn2c(n1)sc1ccccc12`, for which the TGI in the test on K-562 leukemia, in the test on M14 melanoma, with OVCAR-3 ovarian, in the test with SF-268 CNS, in the test on CAKI-1 renal and with PC-3 prostate was greater than 100 µM throughout. In addition, the TGI with CCRF-CEM leukemia, with HS 578T breast, in the test on COLO 205 colon, in the test on A549 NSCLC, with MDA-N and with HL-60(TB) leukemia was greater than 100 µM in each case.
As for `O=C(/C=C/c1ccc(O)c(O)c1)NC(COC(=O)/C=C/c1ccc(O)c(O)c1)C(=O)O` (stereo not drawn), the TGI in the test with K-562 leukemia, in the test on M14 melanoma, in the test on OVCAR-3 ovarian, with SF-268 CNS, with CAKI-1 renal and in the test with PC-3 prostate was greater than 100 µM throughout. The TGI in the test on CCRF-CEM leukemia, in the test on T-47D breast, in the test with HS 578T breast, in the test on COLO 205 colon, in the test with A549 NSCLC and in the test with MDA-N was greater than 100 µM throughout.
As for `COc1ccc(NS(=O)c2c(C)cc(C)cc2C)cc1` (stereo not drawn), the TGI in the test with K-562 leukemia, with M14 melanoma, in the test on OVCAR-3 ovarian, in the test with SF-268 CNS, with CCRF-CEM leukemia and with T-47D breast was greater than 100 µM each time. Further, the TGI in the test with HS 578T breast, in the test with COLO 205 colon, in the test with A549 NSCLC, in the test with MDA-N and with HL-60(TB) leukemia was greater than 100 µM in each case.
`CN1C(=O)CN2C(Cl)(Cl)C2(c2ccccc2)c2cc(Cl)ccc21` (stereo not drawn): the TGI with K-562 leukemia, in the test on M14 melanoma, in the test on OVCAR-3 ovarian, in the test on SF-268 CNS, in the test with CAKI-1 renal and in the test with CCRF-CEM leukemia was greater than 100 µM in each case. This molecule showed a TGI in the test with COLO 205 colon greater than 100 µM.
Consider `NCCCn1c2c(c3ccc([N+](=O)[O-])cc3c1=O)C(=O)c1cc(F)ccc1-2`, for which the GI50 was less than 0.0205 µM in the test with K-562 leukemia; 0.0297 µM in the test with M14 melanoma; 0.031 µM with OVCAR-3 ovarian; 0.0498 µM in the test on CAKI-1 renal; 0.0398 µM in the test with PC-3 prostate; less than 0.0144 µM with CCRF-CEM leukemia. In addition, the GI50 with HL-60(TB) leukemia was less than 0.016 µM. For the same molecule, the TGI came to 0.331 µM with K-562 leukemia; 0.104 µM in the test with M14 melanoma; 0.152 µM in the test on OVCAR-3 ovarian; 0.266 µM with CAKI-1 renal; 1.63 µM in the test with PC-3 prostate; 0.779 µM with CCRF-CEM leukemia. Moreover, the TGI in the test with HL-60(TB) leukemia is 0.166 µM.
Take `O=c1nc2c(c(-c3ccc(F)cc3)[nH]1)COC/C2=C\c1ccc(F)cc1`: the TGI in the test with K-562 leukemia, in the test with M14 melanoma, in the test on OVCAR-3 ovarian, in the test with SF-268 CNS, in the test on CAKI-1 renal and in the test on PC-3 prostate was greater than 100 µM throughout. Besides, the TGI in the test on CCRF-CEM leukemia, in the test with T-47D breast, with HS 578T breast, with COLO 205 colon and with MDA-N was greater than 100 µM throughout.
As to `CN1c2ccccc2C(=O)NC12CCNCC2`, the TGI was greater than 100 µM with K-562 leukemia; greater than 100 µM with M14 melanoma; greater than 100 µM with SF-268 CNS; greater than 100 µM in the test on CCRF-CEM leukemia; greater than 100 µM in the test on T-47D breast; 40 µM in the test with HS 578T breast. The TGI with COLO 205 colon, with A549 NSCLC and in the test on HL-60(TB) leukemia was greater than 100 µM in each case.
Take `Cc1cc(C)c(NC(=O)/C=C/c2ccccc2)c(C)c1`: the TGI in the test with K-562 leukemia, in the test on M14 melanoma, in the test on OVCAR-3 ovarian, in the test on SF-268 CNS, in the test with PC-3 prostate and in the test on CCRF-CEM leukemia was greater than 100 µM each time. Moreover, the TGI with HS 578T breast, in the test on A549 NSCLC and with HL-60(TB) leukemia was greater than 100 µM throughout.
`CCc1ccc(Nc2cc(=O)n(C)c(SCc3ccccc3)n2)cc1`: the TGI with K-562 leukemia, in the test on M14 melanoma, in the test with OVCAR-3 ovarian, in the test on SF-268 CNS, in the test with CAKI-1 renal and with CCRF-CEM leukemia was greater than 100 µM each time. Further, the TGI with T-47D breast is greater than 100 µM; with HS 578T breast, greater than 100 µM; with COLO 205 colon, 45.2 µM; in the test with A549 NSCLC, greater than 100 µM; in the test with MDA-N, greater than 100 µM; with HL-60(TB) leukemia, greater than 100 µM.
On to `Fc1cccc(C2SCc3nc4cc5ccccc5cc4n32)c1` (stereo not drawn), for which the TGI in the test on K-562 leukemia, in the test with M14 melanoma, with OVCAR-3 ovarian, with SF-268 CNS, with CAKI-1 renal and with PC-3 prostate was greater than 100 µM throughout. The TGI in the test with CCRF-CEM leukemia, in the test on T-47D breast, in the test with HS 578T breast, in the test with COLO 205 colon, in the test on A549 NSCLC and in the test on MDA-N was greater than 100 µM throughout.
As to `O=C(CCc1ccc(O)c(O)c1)NCCc1cc(O)c(O)c(O)c1`, the TGI was 41.4 µM in the test on K-562 leukemia; 48.1 µM with M14 melanoma; 34.5 µM in the test with OVCAR-3 ovarian; greater than 100 µM with SF-268 CNS; greater than 100 µM in the test on PC-3 prostate; greater than 100 µM in the test with CCRF-CEM leukemia. In addition, the TGI was greater than 100 µM with T-47D breast; greater than 100 µM in the test on HS 578T breast; greater than 100 µM in the test with COLO 205 colon; 54.2 µM in the test with A549 NSCLC; 30.6 µM in the test with MDA-N; greater than 100 µM in the test on HL-60(TB) leukemia.
